Measured values reported in patent publication US20240197682A1, “METHOD FOR TREATING NEUROLOGICAL DISEASES USING SUPRAMOLECULE POLYMER THERAPEUTICS” (The Regents of the University of California, priority 2022, published 2024).
Read-outs that look alike come from different tables or passages of the source.

Experiments:
[1] = molecular target: T1, YFP-tagged full length 0N4R-Tau P301S aggregates seeded by 416-AD11A lysate (T24 cells) (Homo sapiens, UniProt P10636, P618S); assay: Tau-AD high throughput screening (counter screen) in T24 cells; format: cell-based; conditions: T24 cells transfected with 416-AD11A lysate
T1 construct: C-terminally YFP-tagged full length 0N4R-Tau carrying a P301S mutation; expressed in transfected cells
Experimental: A fragment of the Middle Tempral Gyrus (MTG) from Alzheimer's Disease (AD) patient 2217 was resuspended in 9 volumes of PBS (ml/g of brain) and homogenized 3×12 seconds using a probe homogenizer (Thomas Scientific) with disposable Omni Tip plastic homogenizing probes (Thomas Scinetific Cat No 3409Y77) to generate a 10% brain homogenate (10% AD11-BH). The 10% AD11-BH was clarified of insoluble debris by centrifugation at 800×g for 5 minutes. The resulting supernatant was collected and the protein concentration of this clarified BH (AD11-CBH) was determined by bicinchoninic acid assay (BCA) (Thermo Fisher Cat No. 23227). HEK293 cells stably expressing a C-terminally Clover-tagged truncated 4R-Tau^243-382 transgene containing the P301L and V337M mutations and a C-terminally Ruby-tagged truncated 3R-Tau^243-382 transgene containing the L266V and V337M mutations (128/139 cells) were transfected with the AD11-CBH using lipofectamine 2000 (LF2K) (Thermo Fisher Cat No. 11668500). Briefly, 0.32 μl of LF2K were diluted in 5 μl Opti-MEM (Thermo Scientific Cat No 31985070) per well of a 384-well plate and incubated for 5 min at room temperature (RT). This mixture was added to 0.32 μg of AD11-CBH diluted in 5 μl of PBS per well of a 384-well plate and vortex briefly. The transfection mixture was incubated at room temperature for 90 min. The transfection complexes were subsequently added to a single well of a 384-well plate containing 3500 128/139 cells. After 3 days the cells were harvested, counted and plated at a density of 1 cell/well in a 96-well plate. A clonal cell line containing Clover and Ruby positive Tau aggregates was selected and termed 416-AD11A cells. Following the expansion of these 416-AD11A cells, a cell lysate was prepared by freeze/thaw. The cells from a confluent T175 flask were harvested in 1 ml of PBS containing 1× protease inhibitor cocktail by scraping. The cell suspension was subjected to 4 cycles of freezing in liquid nitrogen for 5 minutes followed by thawing at 37° C. for 5 minutes. The resulting cell lysate was centrifuged at 2000 RPM for 10 minutes to remove the cell debris and the protein concentration of the resulting 416-AD11A lysate was determined by BCA assay and aliquots frozen for future use.
HEK293 cells stably expressing C-terminally YFP-tagged full length 0N4R-Tau carrying a P301S mutation (T24 cells) are plated at a density of 4000 cells per well of a 384-well black walled, clear bottom plate (Greiner Cat No 5678-1091Q) in 60 μl of complete DMEM (DMEM (Corning Cat No 10-013-CV), 10% FBS (VWR Cat No 97068-085, 0.5% Penicilin/streptomycin (Gibco Cat No 15140-122)) containing 0.1 μg/ml Hoechst Dye (Thermo Scientific Cat No H3570). Transfection complexes are prepared by diluting 0.15 μg of 416-AD11A lysate or HEK lysate in 5 μl of PBS per well to be transfected and 0.15 μl of Lipofectamine 2000 (LF2K) (ThermoFisher Cat No 11668500) in 5 μl of Opti-MEM per well to be transfected in separate tubes. The pre-diluted 416-AD11A or HEK lysates and LF2K are subsequently mixed and allowed to incubate for 90 minutes at RT. A 10 μl aliquot of the 416-AD11A or HEK transfection complexes is added to the appropriate wells of the 384-well plate containing the T24 cells using the Bravo liquid handling platform (Agilent). Wells A23-P24 of the 384-well plate are transfected with HEK lysate to act as a reference point for spontaneous aggregation of 0N4R^P301S and for transfection related toxicity. The dilution of test compounds is performed using the Bravo liquid handling platform (Agilent). The control is DMSO in the absence of any test compound. Briefly, 1 μl of each test compound (5 mM stock) in the 384-well test plate was transferred to a 384-well plate (Greiner Cat No 781280) containing 61.5 μl of complete DMEM to generate a working stock of compounds at 80 μM. […]

[2] = Parallel Artificial Membrane Permeability Assay (PAMPA); format: in vitro ADME; conditions: for PAMPA: P_app: 200 uM test compound, 4 hr; for Papp at 4 hr, 200 uM: PAMPA, read-out: PAMPA: P_app
Experimental: 5 uL of 1% lecithin (VWR 0579) dissolved in n-dodecane (Sigma Aldrich D221104) was applied to each well of a MultiScreen IP PAMPA filter plate (Millipore MAIPSWU10) and allowed to equilibrate for 5 minutes. 300 uL of PBS was added to the acceptor plate and 150 uL of 200 uM test compound dissolved in PBS and 30% ethanol was added to the donor wells before incubating the donor plate in the acceptor plate for 4 hr at 500 rpm. 100 uL was sampled from the donor and acceptor wells and the concentrations were measured by liquid chromatography-mass spectrometry (SCIEX 4500) or UV-VIS plate reader (BMG).

tau fibrils = tau fibrils (Homo sapiens, UniProt P10636); conditions: cited from earlier work
tau fibrils, sequence (P10636 1-441 isoform P10636-8): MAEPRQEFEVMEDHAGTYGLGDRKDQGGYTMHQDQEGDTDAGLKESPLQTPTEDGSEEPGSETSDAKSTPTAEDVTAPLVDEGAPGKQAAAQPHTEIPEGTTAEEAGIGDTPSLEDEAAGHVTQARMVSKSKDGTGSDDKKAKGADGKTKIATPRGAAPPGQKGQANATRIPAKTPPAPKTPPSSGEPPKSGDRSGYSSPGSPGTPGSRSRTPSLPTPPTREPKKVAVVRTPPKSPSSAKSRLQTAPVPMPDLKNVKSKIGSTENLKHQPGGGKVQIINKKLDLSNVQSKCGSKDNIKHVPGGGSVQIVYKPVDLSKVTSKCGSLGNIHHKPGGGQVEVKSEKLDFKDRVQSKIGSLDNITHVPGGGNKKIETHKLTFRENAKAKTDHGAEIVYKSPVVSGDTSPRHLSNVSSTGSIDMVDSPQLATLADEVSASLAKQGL

T1 sequence (P10636 1-383 isoform P10636-6 P243S): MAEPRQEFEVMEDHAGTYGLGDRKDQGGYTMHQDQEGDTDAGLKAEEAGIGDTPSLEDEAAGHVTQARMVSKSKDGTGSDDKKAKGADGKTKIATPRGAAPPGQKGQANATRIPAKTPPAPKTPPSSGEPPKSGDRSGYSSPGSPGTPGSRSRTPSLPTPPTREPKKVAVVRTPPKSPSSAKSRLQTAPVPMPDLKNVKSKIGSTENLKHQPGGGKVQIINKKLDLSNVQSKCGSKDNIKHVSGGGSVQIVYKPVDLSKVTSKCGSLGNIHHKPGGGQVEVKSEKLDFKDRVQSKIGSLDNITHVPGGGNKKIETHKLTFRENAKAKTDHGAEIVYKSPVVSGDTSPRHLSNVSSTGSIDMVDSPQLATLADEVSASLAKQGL

Compound	AD Tau Aggregates (% control) [1] [% control]	PAMPA: P_app ([2]; pH 5.0) [×10e−6 cm/sec]	PAMPA: P_app ([2]; pH 7.4) [×10e−6 cm/sec]	Papp at 4 hr, 200 uM ([2]; pH 5.0, 200 uM test compound) [×10⁻⁶ cm/s]	Papp at 4 hr, 200 uM ([2]; pH 7.4, 200 uM test compound) [×10⁻⁶ cm/s]	IC50 (tau fibrils; GTP-1, read-out: measured IC50) [nM]	Kd (tau fibrils; tau PET tracer GTP-1, estimated Kd) [nM]
CNC(=O)c1ncc2c(-c3ccccc3)nn(Cc3ccccc3)c2n1 [Compound 248]	95	46.6	>50				
CNC(=O)c1ncc2c(-c3cc4ccccc4cn3)nn(Cc3ccccc3)c2n1 [Compound 256, 1-benzyl-3-(isoquinolin-3-yl)-N-methyl-1H-pyrazolo[3,4-d]pyrimidine-6-carboxamide]	100		>50	> 50			
CC(=O)Nc1ncc2c(-c3ccccc3C)nn(Cc3ccccc3)c2n1 [Compound 266]	98	>50	>50				
CC(=O)Nc1ncc2c(-c3ccccc3)nn(Cc3cncc(F)c3)c2n1 [Compound 267]	91		5.98				
CCC(=O)Nc1ncc2c(-c3ccccc3)nn(Cc3ccc(OC)cc3)c2n1 [Compound 269]	100	19.1	26.7				
COC(=O)Nc1ncc2c(-c3ccccc3)nn(-c3ccccc3)c2n1 [Compound 274]	94	4.6	6.3				
CC(=O)Nc1ncc2c(-c3ccccc3)nn(Cc3ccncc3)c2n1 [Compound 279]	92	44.7	>50				
CC(=O)Nc1ncc2c(-c3ccccc3)nn(CC3CCCCC3)c2n1 [Compound 280]	90	19.5	19.5				
CNC(=O)c1ncc2c(n1)c(-c1ccc(Cl)cc1)nn2-c1ccnc(C(C)(F)F)n1 [Compound 288, 3-(4-chlorophenyl)-1-[2-(1,1-difluoroethyl)pyrimidin-4-yl]-N-methyl-pyrazolo[4,3-d]pyrimidine-5-carboxamide]	98		>50	> 50			
CNC(=O)c1ncc2c(C#Cc3ccccc3)nn(-c3ccc(OC(F)F)cc3)c2n1 [Compound 290, 1-(4-(difluoromethoxy)phenyl)-N-methyl-3-(phenylethynyl)-1H-pyrazolo[3,4-d]pyrimidine-6-carboxamide]	95			16.5	39.3		
FCCC1CCN(c2ccn3c(n2)nc2ccccc23)CC1 [GTP-1]						22	11
